Assay results from PubChem BioAssay AID1982 (Sanford-Burnham Center for Chemical Genomics, 2009).
Calls of active or inactive are those of the source. How the calls were made is not given here.

Legend:
Assay in all cases: kinase panel binding selectivity, selectivity assay, biochemical, KINOMEscan (AID 1982)
[1] = biological target: MAP kinase-activated protein kinase 2 (Homo sapiens) (UniProt P49137); settings: KINOMEscan 353-kinase binding panel, qPCR; MAPKAPK2; at 10 µM; active compounds read low
[2] = biological target: Mitogen-activated protein kinase 1 (Homo sapiens) (UniProt P28482); settings: KINOMEscan 353-kinase binding panel, qPCR; ERK2; at 10 µM; active compounds read low
[3] = test system: RIOK1; settings: KINOMEscan 353-kinase binding panel, qPCR, at 10 µM, active compounds read low
[4] = biological target: 5'-AMP-activated protein kinase catalytic subunit alpha-1 (Homo sapiens) (UniProt Q13131); settings: KINOMEscan 353-kinase binding panel, qPCR; AMPK-alpha1; at 10 µM; active compounds read low
[5] = test system: CDC2L2; settings: KINOMEscan 353-kinase binding panel, qPCR, at 10 µM, active compounds read low
[6] = test system: ULK3; settings: KINOMEscan 353-kinase binding panel, qPCR, at 10 µM, active compounds read low
[7] = test system: SRPK2; settings: KINOMEscan 353-kinase binding panel, qPCR, at 10 µM, active compounds read low
[8] = test system: MST4; settings: KINOMEscan 353-kinase binding panel, qPCR, at 10 µM, active compounds read low
[9] = test system: RPS6KA2(Kin.Dom.2); settings: KINOMEscan 353-kinase binding panel, qPCR, at 10 µM, active compounds read low
[10] = biological target: Tyrosine-protein kinase ITK/TSK (Homo sapiens) (UniProt Q08881); settings: KINOMEscan 353-kinase binding panel, qPCR, at 10 µM, active compounds read low
Chain of Tyrosine-protein kinase ITK/TSK (Homo sapiens) (Q08881 whole entry, looked up): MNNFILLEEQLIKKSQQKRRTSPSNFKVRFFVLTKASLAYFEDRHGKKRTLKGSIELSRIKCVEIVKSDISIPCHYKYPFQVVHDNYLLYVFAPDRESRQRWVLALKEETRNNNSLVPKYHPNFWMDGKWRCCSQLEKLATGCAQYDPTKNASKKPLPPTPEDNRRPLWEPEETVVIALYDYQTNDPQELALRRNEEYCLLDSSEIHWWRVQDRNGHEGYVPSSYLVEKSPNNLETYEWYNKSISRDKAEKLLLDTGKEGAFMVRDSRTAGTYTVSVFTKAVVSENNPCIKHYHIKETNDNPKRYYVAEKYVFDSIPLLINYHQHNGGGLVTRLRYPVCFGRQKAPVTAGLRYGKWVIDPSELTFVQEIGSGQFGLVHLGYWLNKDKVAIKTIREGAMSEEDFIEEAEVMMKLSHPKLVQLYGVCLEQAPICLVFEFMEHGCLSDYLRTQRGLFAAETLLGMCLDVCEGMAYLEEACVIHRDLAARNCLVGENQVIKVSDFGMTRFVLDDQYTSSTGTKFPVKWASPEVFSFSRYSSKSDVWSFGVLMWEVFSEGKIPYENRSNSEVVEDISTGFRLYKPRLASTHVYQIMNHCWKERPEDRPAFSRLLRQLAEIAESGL

[11] = biological target: Calcium/calmodulin-dependent protein kinase type 1D (Homo sapiens) (UniProt Q8IU85); settings: KINOMEscan 353-kinase binding panel, qPCR; CAMK1D; at 10 µM; active compounds read low
[12] = biological target: Proto-oncogene tyrosine-protein kinase Src (Homo sapiens) (UniProt P12931); settings: KINOMEscan 353-kinase binding panel, qPCR, at 10 µM, active compounds read low
[13] = biological target: Vascular endothelial growth factor receptor 3 (Homo sapiens) (UniProt P35916); settings: KINOMEscan 353-kinase binding panel, qPCR; FLT4; at 10 µM; active compounds read low
[14] = test system: DLK; settings: KINOMEscan 353-kinase binding panel, qPCR, at 10 µM, active compounds read low
[15] = test system: CAMKK1; settings: KINOMEscan 353-kinase binding panel, qPCR, at 10 µM, active compounds read low
[16] = biological target: Cyclin-dependent kinase 9 (Homo sapiens) (UniProt P50750); settings: KINOMEscan 353-kinase binding panel, qPCR; CDK9; at 10 µM; active compounds read low
Chain of Cyclin-dependent kinase 9 (Homo sapiens) (P50750 whole entry, looked up): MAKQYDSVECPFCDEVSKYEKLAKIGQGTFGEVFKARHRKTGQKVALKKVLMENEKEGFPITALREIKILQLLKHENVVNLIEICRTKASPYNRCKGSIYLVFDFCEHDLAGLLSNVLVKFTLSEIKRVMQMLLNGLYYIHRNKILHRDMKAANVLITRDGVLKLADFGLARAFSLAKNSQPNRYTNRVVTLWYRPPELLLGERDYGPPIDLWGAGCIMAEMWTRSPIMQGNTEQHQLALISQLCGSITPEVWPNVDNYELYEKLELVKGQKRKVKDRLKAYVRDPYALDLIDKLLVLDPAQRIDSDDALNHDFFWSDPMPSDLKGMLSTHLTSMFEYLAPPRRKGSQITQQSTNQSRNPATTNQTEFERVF

[17] = test system: ERK3; settings: KINOMEscan 353-kinase binding panel, qPCR, at 10 µM, active compounds read low
[18] = biological target: Macrophage-stimulating protein receptor (Homo sapiens) (UniProt Q04912); settings: KINOMEscan 353-kinase binding panel, qPCR; MST1R; at 10 µM; active compounds read low
Chain of Macrophage-stimulating protein receptor (Homo sapiens) (Q04912 whole entry, looked up): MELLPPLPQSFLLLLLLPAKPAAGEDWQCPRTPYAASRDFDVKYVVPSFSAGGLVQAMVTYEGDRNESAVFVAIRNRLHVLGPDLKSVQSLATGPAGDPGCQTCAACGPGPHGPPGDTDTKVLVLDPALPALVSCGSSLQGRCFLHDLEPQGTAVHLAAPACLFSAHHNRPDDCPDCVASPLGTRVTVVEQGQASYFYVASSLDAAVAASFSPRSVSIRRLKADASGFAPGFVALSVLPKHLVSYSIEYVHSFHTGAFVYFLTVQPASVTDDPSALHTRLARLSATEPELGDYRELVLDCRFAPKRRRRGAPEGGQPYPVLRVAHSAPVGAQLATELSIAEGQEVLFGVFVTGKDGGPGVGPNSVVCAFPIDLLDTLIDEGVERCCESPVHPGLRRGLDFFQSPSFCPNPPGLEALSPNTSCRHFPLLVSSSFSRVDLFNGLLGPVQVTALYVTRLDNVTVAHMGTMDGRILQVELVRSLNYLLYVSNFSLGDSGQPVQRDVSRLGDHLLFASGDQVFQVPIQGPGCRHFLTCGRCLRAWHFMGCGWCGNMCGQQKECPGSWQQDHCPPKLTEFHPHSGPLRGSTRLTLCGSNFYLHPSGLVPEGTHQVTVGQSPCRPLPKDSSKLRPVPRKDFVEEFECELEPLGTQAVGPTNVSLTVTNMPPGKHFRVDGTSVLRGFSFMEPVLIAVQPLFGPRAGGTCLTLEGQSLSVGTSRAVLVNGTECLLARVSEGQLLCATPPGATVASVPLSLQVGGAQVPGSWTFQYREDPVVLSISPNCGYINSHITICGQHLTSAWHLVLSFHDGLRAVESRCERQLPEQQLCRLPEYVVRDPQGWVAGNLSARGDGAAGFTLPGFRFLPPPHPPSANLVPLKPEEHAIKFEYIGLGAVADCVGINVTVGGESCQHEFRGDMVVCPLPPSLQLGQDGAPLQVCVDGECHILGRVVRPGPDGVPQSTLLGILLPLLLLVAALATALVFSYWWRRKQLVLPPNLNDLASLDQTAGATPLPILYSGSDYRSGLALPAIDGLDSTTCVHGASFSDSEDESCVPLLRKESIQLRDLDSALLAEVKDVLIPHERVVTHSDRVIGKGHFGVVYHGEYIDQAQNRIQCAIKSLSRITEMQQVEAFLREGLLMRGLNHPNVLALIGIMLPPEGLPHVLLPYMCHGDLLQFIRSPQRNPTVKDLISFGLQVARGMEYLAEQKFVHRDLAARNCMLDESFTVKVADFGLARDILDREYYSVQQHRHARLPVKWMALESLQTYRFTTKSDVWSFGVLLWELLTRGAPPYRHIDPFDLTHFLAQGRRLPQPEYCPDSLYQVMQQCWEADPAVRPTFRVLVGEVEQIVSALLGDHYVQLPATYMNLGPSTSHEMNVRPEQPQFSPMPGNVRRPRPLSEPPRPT

[19] = test system: MAP4K1; settings: KINOMEscan 353-kinase binding panel, qPCR, at 10 µM, active compounds read low
[20] = biological target: Serine/threonine-protein kinase NLK (Homo sapiens) (UniProt Q9UBE8); settings: KINOMEscan 353-kinase binding panel, qPCR, at 10 µM, active compounds read low
[21] = biological target: Dual specificity protein kinase CLK4 (Homo sapiens) (UniProt Q9HAZ1); settings: KINOMEscan 353-kinase binding panel, qPCR, at 10 µM, active compounds read low
[22] = biological target: Receptor tyrosine-protein kinase erbB-2 (Homo sapiens) (UniProt P04626); settings: KINOMEscan 353-kinase binding panel, qPCR; ERBB2; at 10 µM; active compounds read low
[23] = test system: PRKCH; settings: KINOMEscan 353-kinase binding panel, qPCR, at 10 µM, active compounds read low
[24] = test system: ERK8; settings: KINOMEscan 353-kinase binding panel, qPCR, at 10 µM, active compounds read low
[25] = biological target: High affinity nerve growth factor receptor (Homo sapiens) (UniProt P04629); settings: KINOMEscan 353-kinase binding panel, qPCR; TRKA; at 10 µM; active compounds read low
[26] = biological target: cGMP-dependent protein kinase 2 (Homo sapiens) (UniProt Q13237); settings: KINOMEscan 353-kinase binding panel, qPCR; PRKG2; at 10 µM; active compounds read low
[27] = biological target: Mitogen-activated protein kinase kinase kinase kinase 2 (Homo sapiens) (UniProt Q12851); settings: KINOMEscan 353-kinase binding panel, qPCR; MAP4K2; at 10 µM; active compounds read low
Chain of Mitogen-activated protein kinase kinase kinase kinase 2 (Homo sapiens) (Q12851 whole entry, looked up): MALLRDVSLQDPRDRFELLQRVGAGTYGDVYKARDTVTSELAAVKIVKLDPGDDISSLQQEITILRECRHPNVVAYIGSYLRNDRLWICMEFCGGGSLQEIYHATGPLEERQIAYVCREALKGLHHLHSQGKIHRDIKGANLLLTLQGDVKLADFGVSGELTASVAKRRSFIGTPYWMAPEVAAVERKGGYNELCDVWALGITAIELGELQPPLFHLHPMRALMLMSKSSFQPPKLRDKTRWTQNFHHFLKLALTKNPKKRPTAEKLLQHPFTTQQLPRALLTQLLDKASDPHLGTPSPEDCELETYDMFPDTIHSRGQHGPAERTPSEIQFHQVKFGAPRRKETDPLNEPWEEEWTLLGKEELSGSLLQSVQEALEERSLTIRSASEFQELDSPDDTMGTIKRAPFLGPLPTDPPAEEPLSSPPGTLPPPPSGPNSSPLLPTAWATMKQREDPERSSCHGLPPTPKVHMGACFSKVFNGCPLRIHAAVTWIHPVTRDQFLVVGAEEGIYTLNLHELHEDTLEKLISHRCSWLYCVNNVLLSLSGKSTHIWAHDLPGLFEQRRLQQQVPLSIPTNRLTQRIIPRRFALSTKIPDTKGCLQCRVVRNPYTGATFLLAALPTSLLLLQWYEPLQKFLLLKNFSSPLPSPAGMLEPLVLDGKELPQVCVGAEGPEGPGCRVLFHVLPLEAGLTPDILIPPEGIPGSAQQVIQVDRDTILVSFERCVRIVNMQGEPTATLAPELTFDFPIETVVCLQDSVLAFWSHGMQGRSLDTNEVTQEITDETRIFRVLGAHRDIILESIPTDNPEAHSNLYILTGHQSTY

[28] = biological target: Serine/threonine-protein kinase pim-3 (Homo sapiens) (UniProt Q86V86); settings: KINOMEscan 353-kinase binding panel, qPCR; PIM3; at 10 µM; active compounds read low
[29] = biological target: Ephrin type-A receptor 2 (Homo sapiens) (UniProt P29317); settings: KINOMEscan 353-kinase binding panel, qPCR; EPHA2; at 10 µM; active compounds read low
Chain of Ephrin type-A receptor 2 (Homo sapiens) (P29317 whole entry, looked up): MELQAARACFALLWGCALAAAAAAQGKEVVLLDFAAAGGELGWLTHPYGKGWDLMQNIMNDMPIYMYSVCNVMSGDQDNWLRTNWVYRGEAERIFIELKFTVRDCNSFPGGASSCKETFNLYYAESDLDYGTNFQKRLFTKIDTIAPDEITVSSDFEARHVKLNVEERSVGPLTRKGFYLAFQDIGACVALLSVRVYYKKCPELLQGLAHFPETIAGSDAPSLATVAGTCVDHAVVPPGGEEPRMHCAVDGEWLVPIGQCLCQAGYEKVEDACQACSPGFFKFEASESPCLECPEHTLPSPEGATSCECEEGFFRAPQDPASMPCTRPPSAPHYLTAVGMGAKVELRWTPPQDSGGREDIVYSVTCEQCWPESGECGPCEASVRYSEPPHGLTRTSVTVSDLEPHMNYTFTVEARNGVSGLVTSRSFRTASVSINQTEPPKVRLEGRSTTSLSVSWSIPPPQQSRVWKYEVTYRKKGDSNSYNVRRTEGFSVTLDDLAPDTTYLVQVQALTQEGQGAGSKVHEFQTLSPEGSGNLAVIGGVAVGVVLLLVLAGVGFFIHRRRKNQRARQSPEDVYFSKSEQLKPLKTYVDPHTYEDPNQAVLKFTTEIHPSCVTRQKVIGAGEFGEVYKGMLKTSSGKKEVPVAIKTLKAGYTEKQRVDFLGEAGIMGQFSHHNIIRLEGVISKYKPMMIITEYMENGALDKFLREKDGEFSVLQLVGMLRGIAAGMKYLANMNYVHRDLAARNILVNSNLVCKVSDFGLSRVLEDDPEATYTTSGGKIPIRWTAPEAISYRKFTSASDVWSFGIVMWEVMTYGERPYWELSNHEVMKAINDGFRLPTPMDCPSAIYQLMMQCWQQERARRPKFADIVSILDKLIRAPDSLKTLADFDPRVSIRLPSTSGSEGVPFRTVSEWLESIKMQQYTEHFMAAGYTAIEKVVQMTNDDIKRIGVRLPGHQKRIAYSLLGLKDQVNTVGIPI

[30] = test system: DAPK1; settings: KINOMEscan 353-kinase binding panel, qPCR, at 10 µM, active compounds read low
[31] = biological target: Tyrosine-protein kinase receptor TYRO3 (Homo sapiens) (UniProt Q06418); settings: KINOMEscan 353-kinase binding panel, qPCR, at 10 µM, active compounds read low
Chain of Tyrosine-protein kinase receptor TYRO3 (Homo sapiens) (Q06418 whole entry, looked up): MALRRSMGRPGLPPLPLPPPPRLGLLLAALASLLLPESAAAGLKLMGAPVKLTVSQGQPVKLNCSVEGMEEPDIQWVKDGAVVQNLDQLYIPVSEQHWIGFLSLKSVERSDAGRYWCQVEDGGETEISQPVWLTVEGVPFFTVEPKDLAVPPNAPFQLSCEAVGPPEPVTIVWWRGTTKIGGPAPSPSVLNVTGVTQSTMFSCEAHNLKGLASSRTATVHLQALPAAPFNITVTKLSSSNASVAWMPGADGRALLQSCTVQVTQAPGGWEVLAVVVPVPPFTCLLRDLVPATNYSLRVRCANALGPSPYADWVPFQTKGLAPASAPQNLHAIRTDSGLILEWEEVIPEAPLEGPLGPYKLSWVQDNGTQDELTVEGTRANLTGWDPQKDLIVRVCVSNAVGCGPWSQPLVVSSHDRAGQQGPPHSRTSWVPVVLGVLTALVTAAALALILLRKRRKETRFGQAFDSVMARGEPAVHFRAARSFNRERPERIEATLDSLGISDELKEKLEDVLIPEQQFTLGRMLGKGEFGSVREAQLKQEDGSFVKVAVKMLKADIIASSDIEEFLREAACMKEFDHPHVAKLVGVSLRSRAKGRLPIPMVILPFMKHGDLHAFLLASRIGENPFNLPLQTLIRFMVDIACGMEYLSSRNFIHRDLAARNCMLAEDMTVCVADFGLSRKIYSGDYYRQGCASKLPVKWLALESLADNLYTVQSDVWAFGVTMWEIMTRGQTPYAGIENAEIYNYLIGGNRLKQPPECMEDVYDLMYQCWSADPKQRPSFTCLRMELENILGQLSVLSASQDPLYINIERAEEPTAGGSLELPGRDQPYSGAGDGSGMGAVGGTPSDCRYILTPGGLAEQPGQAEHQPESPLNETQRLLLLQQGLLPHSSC

[32] = test system: MAP3K4; settings: KINOMEscan 353-kinase binding panel, qPCR, at 10 µM, active compounds read low
[33] = biological target: Cyclin-dependent kinase 19 (Homo sapiens) (UniProt Q9BWU1); settings: KINOMEscan 353-kinase binding panel, qPCR; CDK11; at 10 µM; active compounds read low

percent of control binding [1]: 81% (inactive) | percent of control binding [2]: 89% (inactive) | percent of control binding [3]: 100% (inactive) | percent of control binding [4]: 94% (inactive) | percent of control binding [5]: 100% (inactive) | percent of control binding [6]: 100% (inactive) | percent of control binding [7]: 100% (inactive) | percent of control binding [8]: 100% (inactive) | percent of control binding [9]: 100% (inactive) | percent of control binding [10]: 100% (inactive) | percent of control binding [11]: 100% (inactive) | percent of control binding [12]: 100% (inactive) | percent of control binding [13]: 100% (inactive) | percent of control binding [14]: 82% (inactive) | percent of control binding [15]: 78% (inactive) | percent of control binding [16]: 91% (inactive) | percent of control binding [17]: 86% (inactive) | percent of control binding [18]: 100% (inactive) | percent of control binding [19]: 100% (inactive) | percent of control binding [20]: 100% (inactive) | percent of control binding [21]: 100% (inactive) | percent of control binding [22]: 100% (inactive) | percent of control binding [23]: 100% (inactive) | percent of control binding [24]: 100% (inactive) | percent of control binding [25]: 100% (inactive) | percent of control binding [26]: 100% (inactive) | percent of control binding [27]: 89% (inactive) | percent of control binding [28]: 100% (inactive) | percent of control binding [29]: 100% (inactive) | percent of control binding [30]: 87% (inactive) | percent of control binding [31]: 100% (inactive) | percent of control binding [32]: 90% (inactive) | percent of control binding [33]: 75% (inactive)
Compound: Cc1cc2nc(NCCCO)n(CC(=O)c3cc(C(C)(C)C)c(O)c(C(C)(C)C)c3)c2cc1C
